# Assay results: ChEMBL document CHEMBL1144587, “Synthesis and antiviral activity of C-fluoro-branched cyclopropyl nucleosides” (Eur J Med Chem, 2007)
# Experiments:
# Format in all cases: functional, organism-based
# [1] = test system: Human immunodeficiency virus 1; test: Antiviral activity against HIV1 in MT4 cells; settings: Human immunodeficiency virus 1, MT4
# Human alphaherpesvirus 1 = test: Antiviral activity against HSV1 in CCL81 cells; settings: Human alphaherpesvirus 1, CCL 81
# Human alphaherpesvirus 2 = test: Antiviral activity against HSV2 in CCL81 cells; settings: Human alphaherpesvirus 2, CCL 81
# Human betaherpesvirus 5 = test: Antiviral activity against HCMV AD169; settings: Human betaherpesvirus 5, AD169
Compound,EC50 [1] [µM],EC50 (Human alphaherpesvirus 1) [µM],EC50 (Human alphaherpesvirus 2) [µM],EC50 (Human betaherpesvirus 5) [µM]
C[C@]1(CO)C[C@@]1(F)n1ccc(=O)[nH]c1=O (racemic),> 100,> 100,> 100,43
C[C@]1(CO)C[C@]1(F)n1cnc2c(N)ncnc21 (racemic),> 100,67,> 100,71
C[C@]1(CO)C[C@@]1(F)n1cnc2c(N)ncnc21 (racemic),> 100,87,> 100,> 100
Nc1nc2c(ncn2COC(CO)CO)c(=O)[nH]1 [GANCICLOVIR],–,1.5,1.5,1.01

# The next lines start with the values.
EC50 [1] [µM],EC50 (Human alphaherpesvirus 1) [µM],EC50 (Human alphaherpesvirus 2) [µM],EC50 (Human betaherpesvirus 5) [µM],Compound
> 100,> 100,> 100,> 100,C[C@]1(CO)C[C@]1(F)n1ccc(N)nc1=O (racemic)
35,> 100,> 100,> 100,Cc1cn([C@]2(F)C[C@]2(C)CO)c(=O)[nH]c1=O (racemic)
89,> 100,> 100,51.4,Cc1cn([C@@]2(F)C[C@]2(C)CO)c(=O)[nH]c1=O (racemic)
65,> 100,> 100,> 100,C[C@]1(CO)C[C@@]1(F)n1ccc(N)nc1=O (racemic)
19.4,> 100,> 100,10.6,C[C@]1(CO)C[C@]1(F)n1ccc(=O)[nH]c1=O (racemic)
0.0008,–,–,–,Cc1cn([C@H]2C[C@H](N=[N+]=[N-])[C@@H](CO)O2)c(=O)[nH]c1=O [ZIDOVUDINE]
